Data taken from ChEMBL document CHEMBL1143568, “A new class of selective myocardial calcium channel modulators. 2. Role of the acetal chain in oxadiazol-3-one derivatives” (J Med Chem, 2005).

Key:
[1] = species on record: Cavia porcellus; experiment: Negative inotropic potency as decrease in the developed tension in isolated guinea pig left artium
[2] = species on record: Cavia porcellus; experiment: Negative inotropic activity as decrease in the developed tension in isolated guinea pig left artium at 5x10E-5 M (n=4-6)
[3] = species on record: Cavia porcellus; experiment: Vasorelaxant activity determined by percentage inhibition of calcium-induced contraction on K+ depolarized guinea pig aortic strip at 5x10E-5 M
[4] = species on record: Cavia porcellus; experiment: Negative chronotropic activity was determined as percent decrease in the artial rate in spontaneously beating guinea pig artium at 5x10E-5 M (n=6-8)
[5] = species on record: Cavia porcellus; experiment: Negative chronotropic activity was determined as percent decrease in the artial rate in spontaneously beating guinea pig artium at5x10E-5 M (n=6-8)
[6] = species on record: Cavia porcellus; experiment: Negative inotropic activity as decrease in the developed tension in isolated guinea pig left artium at 10E-5 M (n=4-6)
[7] = species on record: Cavia porcellus; experiment: Vasorelaxant activity determined by percentage inhibition of calcium-induced contraction on K+ depolarized guinea pig aortic strip
[8] = species on record: Cavia porcellus; experiment: Negative inotropic activity as decrease in the developed tension in isolated guinea pig left artium 10E-6 M (n=4-6)
[9] = species on record: Cavia porcellus; experiment: Negative chronotropic activity was determined as percent decrease in the artial rate in spontaneously beating guinea pig artium at 10E-5 M (n=6-8)
[10] = species on record: Cavia porcellus; experiment: Compound was tested for percent change in heart rate in isolated guinea pig atrium
[11] = species on record: Cavia porcellus; experiment: Compound was tested for percent change in coronary perfusion pressure in isolated guinea pig atrium
[12] = species on record: Cavia porcellus; experiment: Compound was tested for percent change in atrioventricular conduction time in isolated guinea pig atrium
[13] = species on record: Cavia porcellus; experiment: Negative inotropic activity as decrease in the developed tension in isolated guinea pig left artium at 10E-6 M (n=4-6)
[14] = species on record: Cavia porcellus; experiment: Compound was tested for percent change in maximal rate of the rise in left ventricular pressure in isolated guinea pig atrium
[15] = species on record: Cavia porcellus; experiment: Negative inotropic activity as decrease in the developed tension in isolated guinea pig left artium at 5x10E-5 M (n=4-6); remark: listed apart in the source
[16] = species on record: Cavia porcellus; experiment: Negative inotropic activity as decrease in the developed tension in isolated guinea pig left artium 5x10E-5 M (n=4-6)
[17] = species on record: Cavia porcellus; experiment: Negative inotropic activity as decrease in the developed tension in isolated guinea pig left artium at 5x10E-6 M (n=4-6)
[18] = species on record: Cavia porcellus; experiment: Negative inotropic activity as decrease in the developed tension in isolated guinea pig left artium at 10E-5 M (n=4-6); remark: listed apart in the source
[19] = species on record: Cavia porcellus; experiment: Negative inotropic potency as coronary perfusion pressure in isolated guinea pig atrium; settings: Cardiac atrium
[20] = species on record: Cavia porcellus; experiment: Negative inotropic potency as maximal rate of the rise in left ventricular pressure in isolated guinea pig atrium; settings: Cardiac atrium
[21] = species on record: Cavia porcellus; experiment: Negative inotropic potency is determined by decrease in the developed tension on isolated left ventricular papillary muscle (n=5-7); settings: Muscle tissue
[22] = species on record: Cavia porcellus; experiment: Selectivity ratio against negative inotropic potency on left atrium to that of negative inotropic potency on left ventricular papillary muscle in guinea pig

Row | SMILES | EC50 [1] | Decrease [2] | Decrease [3] | Decrease [4] | other results
1 | C=CCOC1(c2ccc(Br)cc2)SC=C(C)n2c1noc2=O (configuration not stated) | 550 nM | 91% | 13% | 13% | –
2 | CC1=CS[C@@](O)(c2ccc(Br)cc2)c2noc(=O)n21 | 320 nM | 97% | 12% | 18% | –
3 | CCCCCCOC1(c2ccc(Br)cc2)SC=C(C)n2c1noc2=O (configuration not stated) | 830 nM | 81% | 2% | 9% | –
4 | CCCOC1(c2ccc(Br)cc2)SC=C(C)n2c1noc2=O (configuration not stated) | 410 nM | 69% | 14% | – | Decrease [5]: 12%
5 | CC1=CS[C@@](O)(c2ccc(Cl)cc2)c2noc(=O)n21 | 800 nM | – | 26% | 18% | Decrease [6]: 80%
6 | CCCCOC1(c2ccc(Cl)cc2)SC=C(C)n2c1noc2=O (configuration not stated) | 1850 nM | 62% | 9% | 9% | –
7 | CCCOC1(c2ccc(Cl)cc2)SC=C(C)n2c1noc2=O (configuration not stated) | 890 nM | 73% | 20% | 7% | –
8 | CC/C=C/COC1(c2ccc(Br)cc2)SC=C(C)n2c1noc2=O (configuration not stated) | – | 43% | 11% | 10% | –
9 | CCCCCCCCCCCCCCCO[C@@]1(c2ccc(Br)cc2)SC=C(C)n2c1noc2=O | 420 nM | 75% | – | 12% | Decrease [7]: 4%
10 | CC1=CSC(OCc2ccccc2)(c2ccc(Br)cc2)c2noc(=O)n21 (configuration not stated) | 590 nM | 63% | 2% | 4% | –
11 | CCCCCCCCCCCCCCCOC1(c2ccc(Cl)cc2)SC=C(C)n2c1noc2=O (configuration not stated) | 1130 nM | 69% | 3% | 9% | –
12 | CC1=CS[C@@](OCC2CCCCC2)(c2ccc(Cl)cc2)c2noc(=O)n21 | 240 nM | 55% | 5% | 5% | –
13 | CC/C=C/COC1(c2ccc(Cl)cc2)SC=C(C)n2c1noc2=O (configuration not stated) | – | 46% | 10% | 8% | –
14 | CC1=CSC(OCC(C)C)(c2ccc(Br)cc2)c2noc(=O)n21 (configuration not stated) | 310 nM | – | 6% | 11% | Decrease [6]: 79%
15 | C=CCOC1(c2ccc(Cl)cc2)SC=C(C)n2c1noc2=O (configuration not stated) | 370 nM | 84% | 21% | 13% | –
16 | COC1(c2ccc(Br)cc2)SC=C(C)n2c1noc2=O (configuration not stated) | – | – | 13% | – | Decrease [8]: 38%; Decrease [9]: 9%
17 | CCO[C@@]1(c2ccc(Br)cc2)SC=C(C)n2c1noc2=O | 40 nM | – | 19% | – | Change [10]: -9%; Change [11]: 32%; Change [12]: -3%; Decrease [13]: 77%; Change [14]: -14%; Decrease [9]: 5%
18 | CCCCCCCC/C=C\CCCCCCCCO[C@@]1(c2ccc(Cl)cc2)SC=C(C)n2c1noc2=O | 870 nM | 70% | 7% | 14% | –
19 | CC1=CS[C@@](OCC2CCCCC2)(c2ccc(Br)cc2)c2noc(=O)n21 | 190 nM | 78% | 3% | 8% | –
20 | CCCCCCCCCCCCCCCCCCO[C@@]1(c2ccc(Br)cc2)SC=C(C)n2c1noc2=O | 970 nM | 66% | 6% | 5% | –

Row | SMILES | EC50 [1] | Decrease [2] | Decrease [3] | Decrease [4] | other results
21 | CCCCCOC1(c2ccc(Cl)cc2)SC=C(C)n2c1noc2=O (configuration not stated) | – | – | 15% | 14% | Decrease [15]: 45%
22 | CCCCCCCCCCCCOC1(c2ccc(Cl)cc2)SC=C(C)n2c1noc2=O (configuration not stated) | 870 nM | – | 5% | 5% | Decrease [16]: 56%
23 | CCCCCCCCCOC1(c2ccc(Cl)cc2)SC=C(C)n2c1noc2=O (configuration not stated) | 790 nM | 73% | 4% | 11% | –
24 | CC1=CSC(OCC(C)C)(c2ccc(Cl)cc2)c2noc(=O)n21 (configuration not stated) | 560 nM | 83% | 37% | 15% | –
25 | COC1(c2ccc(Cl)cc2)SC=C(C)n2c1noc2=O (configuration not stated) | 1540 nM | 62% | 14% | 22% | –
26 | CCCCCCCCCCCCO[C@@]1(c2ccc(Br)cc2)SC=C(C)n2c1noc2=O | 130 nM | – | 3% | 16% | Decrease [6]: 59%
27 | CCCCCCOC1(c2ccc(Cl)cc2)SC=C(C)n2c1noc2=O (configuration not stated) | 640 nM | 68% | 3% | 10% | –
28 | CC/C=C\COC1(c2ccc(Cl)cc2)SC=C(C)n2c1noc2=O (configuration not stated) | 1310 nM | 67% | 10% | 5% | –
29 | CCCCCCCCCO[C@@]1(c2ccc(Br)cc2)SC=C(C)n2c1noc2=O | 350 nM | 71% | 3% | 7% | –
30 | CC1=CS[C@@](OC(C)C)(c2ccc(Cl)cc2)c2noc(=O)n21 | 220 nM | – | 10% | 10% | Decrease [17]: 64%
31 | CCCCCOC1(c2ccc(Br)cc2)SC=C(C)n2c1noc2=O (configuration not stated) | – | 34% | 3% | 2% | –
32 | CCO[C@@]1(c2ccc(Cl)cc2)SC=C(C)n2c1noc2=O | 270 nM | 53% | 28% | 16% | –
33 | CCCCOC1(c2ccc(Br)cc2)SC=C(C)n2c1noc2=O (configuration not stated) | 1020 nM | 82% | 2% | 18% | –
34 | CC/C=C\COC1(c2ccc(Br)cc2)SC=C(C)n2c1noc2=O (configuration not stated) | 630 nM | 81% | 11% | 20% | –
35 | CCCCCCCCCCCCCCCCCCOC1(c2ccc(Cl)cc2)SC=C(C)n2c1noc2=O (configuration not stated) | – | 39% | 2% | – | Decrease [9]: 15%
36 | CC1=CSC(OCc2ccccc2)(c2ccc(Cl)cc2)c2noc(=O)n21 (configuration not stated) | 740 nM | 63% | 4% | 5% | –
37 | CC1=CSC(OC(C)C)(c2ccc(Br)cc2)c2noc(=O)n21 (configuration not stated) | 270 nM | – | 18% | 4% | Decrease [18]: 58%
38 | CCCCCCCC/C=C\CCCCCCCCO[C@@]1(c2ccc(Br)cc2)SC=C(C)n2c1noc2=O | 1260 nM | 84% | 2% | 9% | –
39 | COc1ccc([C@@H]2Sc3ccccc3N(CCN(C)C)C(=O)[C@@H]2OC(C)=O)cc1 [DILTIAZEM] | 790 nM | – | 88% | 94% | Change [10]: -25%; EC50 [19]: 21.9 nM; Change [11]: -51%; Change [12]: 34%; EC50 [20]: 9.33 nM; Decrease [6]: 78%; Change [14]: -59%; EC50 [21]: 1610 nM; Selectivity [22]: 2.04
